Measurements taken from paper PMC7503370, “Cellular Signaling and Anti-Apoptotic Effects of Prolactin-Releasing Peptide and Its Analog on SH-SY5Y Cells” (International Journal of Molecular Sciences, 2020).
Numbered stars: 1 amine (or outer) side, 2 acyl side, 3 side chain; on linkers, the order of the positions; unused ones are H or OH. Side chains are listed from the residue outwards. Peptide text beside a SMILES is read from it. * marks the point of attachment. γGlu = O=C(O)[C@H](CCC(=O)[*:2])N[*:1]; Palmitoyl = CCCCCCCCCCCCCCCC(=O)*

Legend:
Format in all cases: cell-based, human
[1] = test system: Tau protein phosphorylation in SH-SY5Y cells; test: Western blotting of Tau phosphorylation in MG-stressed cells; details: 4 h pretreatment 1 × 10^−5 M, then 0.6 mM MG 16 h, vs MG; for attenuation of MG-increased Tau phosphorylation at Ser396: normalized to GAPDH
Protocol: (§1) Figure 8 PrRP31 and palm^11-PrRP31 attenuate Tau hyperphosphorylation at the epitope Ser396 in SH-SY5Y. Immunoblots with: (a) and their quantifications: (b). SH-SY5Y cells were pretreated with PrRP31 and palm^11-PrRP31 at a concentration of 1 × 10^−5 M for 4 h and then stressed with 0.6 mM MG for 16 h. Activation was expressed as the ratio of the activated protein to the total amount of the protein, both normalized to loading control, GAPDH. Data are presented as the means ± SEM as a percentage of control cells treated with medium alone. Analysis is made vs. MG by a Student’s t-test, * p < 0.5, ** p < 0.01 (each sample replicate in triplicate).
(§2) For the investigation of the molecular mechanism of PrRP31 and its analog in the cells, signaling pathways were studied by Western blotting (WB). The cells were cultured in 6-well plates at a density of 800,000 cells per well. Growth medium was exchanged for serum-free DMEM 16 h before an experiment, and then, the cells were incubated with PrRP31, palm^11-PrRP31, or scrambled peptide at a final concentration of 1 × 10^−5 M or insulin at a concentration of 1 × 10^−7 M at 37 °C for 8 min. The cells were rapidly cooled on ice and lysed in 400 µl of Laemmli sample buffer (62.5 mM Tris-HCl with pH 6.8, 2% SDS, 10% glycerol, 0.01% bromophenol blue, 5% mercaptoethanol, 50 mM NaF, and 1 mM Na3VO4) and stored at −20 °C. Afterward, the cell lysates were analyzed by WB. SDS-electrophoresis and WB were carried out using a Criterion system with a 26-well 4−15% Criterion^TM TGX^TM Precast Midi Protein Gel (Bio-Rad, Hercules, CA, USA) at a constant voltage of 200 V or 100 V, respectively.
(§3) Subsequently, the membranes were incubated overnight with primary antibody (Ab) at 4 °C, according to the manufacturer´s instructions (Table 2). The next day, the membranes were incubated with an HRP-linked secondary antibody for 1 h at room temperature. Chemiluminescence was visualized with a ChemiDoc^TM System (Bio-Rad). Band intensities were normalized using glyceraldehyde 3-phosphate dehydrogenase (GAPDH) as an internal loading control.
(§4) For analysis of the molecular mechanism during MG stress, the growth medium was exchanged for serum-free DMEM 16 h before the experiment. The cells were pretreated with 1 × 10^−5 M PrRP31 or palm^11-PrRP31 for 4 h; then, MG was added to a final concentration of 0.6 mM, and the cells were incubated at 37 °C for 16 h. The controls and compounds were tested in triplicate.

SH-SY5Y cells = test: Treatment with peptides after 16 h exposure to MG, MTT cell viability; details: 1.2 mM MG 16 h, then 4 h treatment 1 × 10^−5 M, n = 3, octuplicates
Protocol: Treatment for 4 h with PrRP31 and palm^11-PrRP31 at a concentration of: (a) 1 × 10^−5 M; after exposure to 1.2 mM MG for 16 h in SH-SY5Y cells. Treatment for 4 h with PrRP31 and palm^11-PrRP31 at a concentration of: (b) 1 × 10^−5 M; (c) 1 × 10^−7 M, after exposure to 0.6 mM MG for 16 h in SH-SY5Y cells. MG toxicity measured with MTT assay. Data are presented as the means ± SEM as a percentage of control cells treated with vehicle analyzed by a Student´s t-test vs. 0.6 mM MG ## p < 0.01, ### p < 0.001, #### p < 0.0001 (n = 3, each sample in octuplicates). Control vs. 0.6 mM MG analyzed by a Student´s t-test, * p < 0.5, ** p < 0.01.
The MTT test was used to measure cell viability. The MTT reagent was dissolved in RPMI-1640 without phenol red. Cells were incubated for 2 h with a 10% solution of MTT at 37 °C. Living cells converted soluble MTT to insoluble formazan, which was subsequently dissolved in DMSO. The absorbance was measured at a wavelength of 560 nm.
For this assay, cells were cultured in 96-well plates at a density of 40,000 cells per well. The growth medium was exchanged for serum-free DMEM 16 h before the experiment. First, the cells were pretreated with 1 × 10^−5 M or 1 × 10^−7 M PrRP31 or palm^11-PrRP31 (in octuplicates) for 4 h to prevent MG cytotoxic effects; then, MG was added to a final concentration of 0.6 mM or 1.2 mM. The cells were incubated at 37 °C for 16 h. […]

[2] = test system: p-c-Jun, p-ERK, p-Bad, Bax/Bcl-2 in SH-SY5Y cells; test: Western blotting of anti-apoptotic signaling in MG-stressed cells; details: 4 h pretreatment 1 × 10^−5 M, then 0.6 mM MG 16 h, vs MG, triplicates; for decrease of the MG-increased level of p-Bad (Ser112)/Bad / decrease of the MG-increased level of p-Bad (Ser136)/Bad / decrease of the MG-increased level of p-c-Jun (Ser73)/c-Jun: normalized to GAPDH
Protocol: as §1, with “7” for “8”, “affected anti-apoptotic signaling” for “attenuate Tau hyperphosphorylation at the epitope Ser396”, “SH-SY5Y cells. Immunoblots:” for “SH-SY5Y. Immunoblots with:”, “sample” for “sample replicate”, “triplicates).” for “triplicate).”
as §2, §3, §4

Row | SMILES | Tau phosphorylation at Ser198/199/202 (Tau 1)/Tau 5 induced by MG, effect of pretreatment [1] | attenuation of MG-increased Tau phosphorylation at Ser396 ([1]; triplicates) | change of cell viability compared to cells administered with 1.2 mM MG (SH-SY5Y cells) | decrease of the MG-increased level of p-Bad (Ser112)/Bad [2] | decrease of the MG-increased level of p-Bad (Ser136)/Bad [2] | decrease of the MG-increased level of p-c-Jun (Ser73)/c-Jun [2] | increase in unphosphorylated Tau (Tau 1 antibody, Ser198/199/202)/Tau 5 ([1]; triplicates) | attenuation of the MG-increased ratio of Bax/Bcl−2 [2]
1 | CC[C@H](C)[C@H](NC(=O)CNC(=O)[C@H](CCCNC(=N)N)NC(=O)[C@H](CO)NC(=O)[C@H](C)NC(=O)[C@H](Cc1ccc(O)cc1)NC(=O)[C@H](Cc1c[nH]c2ccccc12)NC(=O)[C@H](C)NC(=O)[C@@H]1CCCN1C(=O)[C@H](CC(N)=O)NC(=O)[C@@H](NC(=O)[C@H](CC(=O)O)NC(=O)[C@@H]1CCCN1C(=O)[C@@H](NC(=O)[C@H](CCCNC(=N)N)NC(=O)[C@@H](NC(=O)[C@H](CCC(=O)O)NC(=O)[C@H](CCSC)NC(=O)[C@H](CO)NC(=O)[C@H](Cc1c[nH]cn1)NC(=O)[C@H](CCCNC(=N)N)NC(=O)[C@H](Cc1c[nH]cn1)NC(=O)[C@@H](NC(=O)[C@H](CCCNC(=N)N)NC(=O)[C@@H](N)CO)[C@@H](C)O)[C@@H](C)CC)[C@@H](C)O)[C@@H](C)CC)C(=O)N[C@@H](CCCNC(=N)N)C(=O)N1CCC[C@H]1C(=O)N[C@H](C(=O)NCC(=O)N[C@@H](CCCNC(=N)N)C(=O)N[C@@H](Cc1ccccc1)C(N)=O)C(C)C [PrRP31] | tended to decrease | 46% | nonsignificant increase | tended to decrease | tended to decrease | tended to decrease |  | 
2 | CCCCCCCCCCCCCCCC(=O)N[C@@H](CCC(=O)NCCCC[C@H](NC(=O)[C@@H](NC(=O)[C@H](CCC(=O)O)NC(=O)[C@H](CCSC)NC(=O)[C@H](CO)NC(=O)[C@H](Cc1c[nH]cn1)NC(=O)[C@H](CCCNC(=N)N)NC(=O)[C@H](Cc1c[nH]cn1)NC(=O)[C@@H](NC(=O)[C@H](CCCNC(=N)N)NC(=O)[C@@H](N)CO)[C@@H](C)O)[C@@H](C)CC)C(=O)N[C@H](C(=O)N1CCC[C@H]1C(=O)N[C@@H](CC(=O)O)C(=O)N[C@H](C(=O)N[C@@H](CC(N)=O)C(=O)N1CCC[C@H]1C(=O)N[C@@H](C)C(=O)N[C@@H](Cc1c[nH]c2ccccc12)C(=O)N[C@@H](Cc1ccc(O)cc1)C(=O)N[C@@H](C)C(=O)N[C@@H](CO)C(=O)N[C@@H](CCCNC(=N)N)C(=O)NCC(=O)N[C@H](C(=O)N[C@@H](CCCNC(=N)N)C(=O)N1CCC[C@H]1C(=O)N[C@H](C(=O)NCC(=O)N[C@@H](CCCNC(=N)N)C(=O)N[C@@H](Cc1ccccc1)C(N)=O)C(C)C)[C@@H](C)CC)[C@@H](C)CC)[C@@H](C)O)C(=O)O [palm^11-PrRP31] (H-SRTHRHSMEIK([γGlu-Palmitoyl])TPDINPAWYASRGIRPVGRF-NH2; N-terminus assumed) |  | 32% | nonsignificant increase | 46% | 52% | 37% | 32% | 38%
